Here are results for 63 substances from patent publication US20250101436A1, “APTAMERS AND SMALL MOLECULE LIGANDS” (MeiraGTx UK II Limited, priority 2021, published 2025).

One data set concerns luciferase gene expression in HEK 293 cells in response to Comp. 004. In words: Screen of riboswitch constructs with 12C6-1 variant aptamers (libraries N1-N5) against Comp. 004, luciferase in HEK 293 cells. The class given is cell-based, human. Particulars: library N2 variant aptamers (J2-3, P3-J3-3a, J3a-2 randomized) of 12C6-1 in riboswitch constructs; in response to Comp. 004; HEK 293 cells. The text has this: Cloning of riboswitch constructs containing 12C6-1 variant aptamer sequences: 12C6-1 aptamer sequence was used as template, and nucleobases were randomized at certain position in the sequence. Aptamers incorporating random mutagenesis were synthesized by Integrated DNA Technologies, Inc. Golden Gate cloning strategy (New England Biolabs, NEB) was used to clone the synthesized aptamer sequences into intron-exon-intron cassette to replace the 12C6-1 aptamer in the Luci-12C6-1 riboswitch construct, generating riboswitch constructs containing variant aptamer sequences.
To further improve the riboswitch activity in responding to Comp. 004 and related compounds, the aptamer sequence 12C6-1 was subject to mutagenesis to generate aptamer variants, and the riboswitches containing the variant aptamers were screened against Comp. 004 for the ones that have improved dynamic range of induced gene expression (the fold induction), in comparison with the fold induction by parental riboswitch construct Luci-12C6-1. […] These loop or junction region alone or together with stem region in proximity were chosen for random mutagenesis to generate riboswitches with re-engineered aptamer sequences with improved activity.
Five aptamer libraries N1, N2, N3, N4 and N5 were generated by randomizing nucleotides at positions in J2-4, J2-3/J3-3a/J3a-2/P3, L3a, J4-5/J5-4/P4 and L5 regions of the parent 12C6-1 sequence, respectively (see FIGS. 3a and 3b). Single bacterial colonies were picked and plasmids containing variant riboswitch constructs were screened in HEK 293 cells for improved gene regulation activity in response to 25 µM Comp. 004 as compared to parent riboswitch construct Luci-12C6-1.
Turning to “N2_2D12 (DNA CTGGGGAGTCCTTCATGC; chemistry not given here)”, the “Fold (induction of luciferase gene expression)” value (“Fold” for short) worked out at 1.1 fold.

For “N2_2E2 (DNA CTGGGGAGTCCTTCATGC; chemistry not given here)”, the “Fold” value amounted to 1.1 fold. On the same count and under the same terms, then “N2_2E3 (DNA CTGGGGAGTCCTTCATGC; chemistry not given here)”, with 1.3 fold; and “N2_2E4 (DNA CTGGGGAGTCCTTCATGC; chemistry not given here)”, with 0.7 fold; and “N2_2E5 (DNA CTGGGGAGTCCTTCATGC; chemistry not given here)”, with 1.2 fold. For “N2_2E6 (DNA CTGGGGAGTCCTTCATGC; chemistry not given here)”, the “Fold” value came to 0.9 fold. On the same count and under the same terms, then “N2_2E7 (DNA CTGGGGAGTCCTTCATGC; chemistry not given here)”, with 1.1 fold; and “N2_2E8 (DNA CTGGGGAGTCCTTCATGC; chemistry not given here)”, with 0.9 fold. Still for that read-out and setting: in the case of “N2_2E10 (DNA CTGGGGAGTCCTTCATGC; chemistry not given here)” it was 1.2 fold; in that of “N2_2E12 (DNA CTGGGGAGTCCTTCATGC; chemistry not given here)”, 1.3 fold; in that of “N2_2F1 (DNA CTGGGGAGTCCTTCATGC; chemistry not given here)”, 1.1 fold.

For “N2_2F2 (DNA CTGGGGAGTCCTTCATGC; chemistry not given here)”, the “Fold” value was found to be 1.0 fold. Consider “N2_2F3 (DNA CTGGGGAGTCCTTCATGC; chemistry not given here)”, for which the “Fold” value was 0.9 fold. Still for that read-out and setting: in the case of “N2_2F4 (DNA CTGGGGAGTCCTTCATGC; chemistry not given here)” it was 1.2 fold; in that of “N2_2F6 (DNA CTGGGGAGTCCTTCATGC; chemistry not given here)”, 1.0 fold.

For the substance “N2_2F7 (DNA CTGGGGAGTCCTTCATGC; chemistry not given here)”, the “Fold” value was determined as 1.0 fold. The same measure, in the same setting: then “N2_2F8 (DNA CTGGGGAGTCCTTCATGC; chemistry not given here)”, with 1.0 fold; and “N2_2F10 (DNA CTGGGGAGTCCTTCATGC; chemistry not given here)”, with 1.1 fold; and “N2_2F11 (DNA CTGGGGAGTCCTTCATGC; chemistry not given here)”, with 1.1 fold. On the same count and under the same terms, then “N2_2F12 (DNA CTGGGGAGTCCTTCATGC; chemistry not given here)”, with 1.0 fold; and “N2_2G1 (DNA CTGGGGAGTCCTTCATGC; chemistry not given here)”, with 1.7 fold; and “N2_2G2 (DNA CTGGGGAGTCCTTCATGC; chemistry not given here)”, with 1.3 fold. On the same count and under the same terms, in the case of “N2_2G3 (DNA CTGGGGAGTCCTTCATGC; chemistry not given here)” it was 1.1 fold; in that of “N2_2G4 (DNA CTGGGGAGTCCTTCATGC; chemistry not given here)”, 1.1 fold; in that of “N2_2G5 (DNA CTGGGGAGTCCTTCATGC; chemistry not given here)”, 1.0 fold. Regarding “N2_2G6 (DNA CTGGGGAGTCCTTCATGC; chemistry not given here)”, the “Fold” value was found to be 1.1 fold. Still for that read-out and setting: in the case of “N2_2G7 (DNA CTGGGGAGTCCTTCATGC; chemistry not given here)” it was 1.0 fold. As for “N2_2G8 (DNA CTGGGGAGTCCTTCATGC; chemistry not given here)”, the “Fold” value came out at 1.1 fold. On the same count and under the same terms, in the case of “N2_2G9 (CTGGGGAGTCCTTCATGC; chemistry not given here)” it was 1.3 fold; in that of “N2_2G10 (DNA CTGGGGAGTCCTTCATGC; chemistry not given here)”, 1.0 fold; in that of “N2_2G11 (DNA CTGGGGAGTCCTTCATGC; chemistry not given here)”, 0.9 fold.

Take “N2_2H1 (CTGGGGAGTCCTTCATGC; chemistry not given here)”: the “Fold” value is on record as 1.1 fold. On the same count and under the same terms, in the case of “N2_2H2 (CTGGGGAGTCCTTCATGC; chemistry not given here)” it was 0.8 fold; in that of “N2_2H3 (CTGGGGAGTCCTTCATGC; chemistry not given here)”, 1.0 fold. Consider “N2_2H4 (CTGGGGAGTCCTTCATGC; chemistry not given here)”, for which the “Fold” value was 1.0 fold. Same read-out and setting: in the case of “N2_2H6 (CTGGGGAGTCCTTCATGC; chemistry not given here)” it was 1.0 fold; in that of “N2_2H7 (CTGGGGAGTCCTTCATGC; chemistry not given here)”, 0.8 fold; in that of “N2_2H8 (CTGGGGAGTCCTTCATGC; chemistry not given here)”, 1.4 fold.

Take “N2_2H9 (CTGGGGAGTCCTTCATGC; chemistry not given here)”: the “Fold” value is 0.9 fold. On to “N2_2H10 (CTGGGGAGTCCTTCATGC; chemistry not given here)”, for which the “Fold” value is 1.0 fold. Still for that read-out and setting: then “N2_2H11 (CTGGGGAGTCCTTCATGC; chemistry not given here)”, with 1.2 fold.

The same data set, now with this note: library N5 variant aptamers (L5, X16-X21 randomized) of 12C6-1 in riboswitch constructs; in response to Comp. 004 treatment; HEK 293 cells.
Take “N5_1A1 (CTGGGGAGTCCT; chemistry not given here)”: the “Fold” value worked out at 670.2 fold. Same read-out and setting: in the case of “N5_1A2 (CTGGGGAGTCCT; chemistry not given here)” it was 672.2 fold; in that of “N5_1A3 (CTGGGGAGTCCT; chemistry not given here)”, 228.1 fold; in that of “N5_1A5 (CTGGGGAGTCCT; chemistry not given here)”, 291.5 fold. On the same count and under the same terms, then “N5_1A6 (CTGGGGAGTCCT; chemistry not given here)”, with 638.8 fold. Consider “N5_1A7 (CTGGGGAGTCCT; chemistry not given here)”, for which the “Fold” value is 659.9 fold. Consider “N5_1A8 (CTGGGGAGTCCT; chemistry not given here)”, for which the “Fold” value was determined as 589.4 fold. As to “N5_1A9 (CTGGGGAGTCCT; chemistry not given here)”, the “Fold” value stood at 804.7 fold. Same read-out and setting: then “N5_1A10 (CTGGGGAGTCCT; chemistry not given here)”, with 674.4 fold. With “N5_1A11 (CTGGGGAGTCCT; chemistry not given here)”, the “Fold” value amounted to 793.5 fold. Same read-out and setting: in the case of “N5_1B2 (CTGGGGAGTCCT; chemistry not given here)” it was 747.7 fold; in that of “N5_1B3 (CTGGGGAGTCCT; chemistry not given here)”, 792.0 fold. On the same count and under the same terms, then “N5_1B5 (CTGGGGAGTCCT; chemistry not given here)”, with 780.8 fold; and “N5_1B6 (CTGGGGAGTCCT; chemistry not given here)”, with 1381.8 fold; and “N5_1B7 (CTGGGGAGTCCT; chemistry not given here)”, with 662.1 fold. The same measure, in the same setting: in the case of “N5_1B8 (CTGGGGAGTCCT; chemistry not given here)” it was 645.1 fold; in that of “N5_1B9 (CTGGGGAGTCCT; chemistry not given here)”, 941.5 fold. For “N5_1B10 (CTGGGGAGTCCT; chemistry not given here)”, the “Fold” value is 1013.6 fold. As to “N5_1B11 (CTGGGGAGTCCT; chemistry not given here)”, the “Fold” value is 477.1 fold. The same measure, in the same setting: then “N5_1C2 (CTGGGGAGTCCT; chemistry not given here)”, with 687.2 fold; and “N5_1C3 (CTGGGGAGTCCT; chemistry not given here)”, with 664.1 fold; and “N5_1C4 (CTGGGGAGTCCT; chemistry not given here)”, with 665.0 fold.
